Assay results reported in US10899754B2, “Modulators of indoleamine 2,3-dioxygenase” (GLAXOSMITHKLINE INTELLECTUAL PROPERTY DEVELOPMENT LIMITED, priority 2016, dated 2021).

Assays:
Format in all cases: cell-based
[1] = biological target: T1, indoleamine 2, 3-dioxygenase (IDO1) (Homo sapiens, UniProt P14902); assay: IDO1 HeLa RapidFire MS assay (kynurenine detection by mass spectrometry); parameters: to induce the expression of indoleamine 2, 3-dioxygenase (IDO1); conditions: HeLa cells, pIC50, read-out: IDO1_HELA_PXC50 (converted)
Protocol: IDO1 HeLa RapidFire MS Assay
(§1) Compounds of the present invention were tested via high-throughput cellular assays utilizing detection of kynurenine via mass spectrometry and cytotoxicity as end-points. For the mass spectrometry and cytotoxicity assays, human epithelial HeLa cells (CCL-2; ATCC®, Manassas, Va.) were stimulated with human interferon-γ (IFN-γ) (Sigma-Aldrich Corporation, St. Louis, Mo.) to induce the expression of indoleamine 2, 3-dioxygenase (IDO1). Compounds with IDO1 inhibitory properties decreased the amount of kynurenine produced by the cells via the tryptophan catabolic pathway. Cellular toxicity due to the effect of compound treatment was measured using CellTiter-Glo® reagent (CTG) (Promega Corporation, Madison, Wis.), which is based on luminescent detection of ATP, an indicator of metabolically active cells.
(§2) In preparation for the assays, test compounds were serially diluted 3-fold in DMSO from a typical top concentration of 1 mM or 5 mM and plated at 0.5 μL in 384-well, polystyrene, clear bottom, tissue culture treated plates with lids (Greiner Bio-One, Kremsmünster, Austria) to generate 11-point dose response curves. Low control wells (0% kynurenine or 100% cytotoxicity) contained either 0.5 μL of DMSO in the presence of unstimulated (−IFN-γ) HeLa cells for the mass spectrometry assay or 0.5 μL of DMSO in the absence of cells for the cytotoxicity assay, and high control wells (100% kynurenine or 0% cytotoxicity) contained 0.5 μL of DMSO in the presence of stimulated (+IFN-γ) HeLa cells for both the mass spectrometry and cytotoxicity assays.
(§3) Frozen stocks of HeLa cells were washed and recovered in DMEM high glucose medium with HEPES (Thermo Fisher Scientific, Inc., Waltham, Mass.) supplemented with 10% v/v certified fetal bovine serum (FBS) (Thermo Fisher Scientific, Inc., Waltham, Mass.), and 1× penicillin-streptomycin antibiotic solution (Thermo Fisher Scientific, Inc., Waltham, Mass.). The cells were diluted to 100,000 cells/mL in the supplemented DMEM medium. 50 μL of either the cell suspension, for the mass spectrometry assay, or medium alone, for the cytotoxicity assay, were added to the low control wells, on the previously prepared 384-well compound plates, resulting in 5,000 cells/well or 0 cells/well respectively. IFN-γ was added to the remaining cell suspension at a final concentration of 10 nM, and 50 μL of the stimulated cells were added to all remaining wells on the 384-well compound plates. The plates, with lids, were then placed in a 37° C., 5% CO2 humidified incubator for 2 days.
(§4) Following incubation, the 384-well plates were removed from the incubator and allowed to equilibrate to room temperature for 30 minutes. For the cytotoxicity assay, CellTiter-Glo® was prepared according to the manufacturer's instructions, and 10 μL were added to each plate well. After a twenty minute incubation at room temperature, luminescence was read on an EnVision® Multilabel Reader (PerkinElmer Inc., Waltham, Mass.). For the mass spectrometry assay, 10 μL of supernatant from each well of the compound-treated plates were added to 40 μL of acetonitrile, containing 10 μM of an internal standard for normalization, in 384-well, polypropylene, V-bottom plates (Greiner Bio-One, Kremsmünster, Austria) to extract the organic analytes. Following centrifugation at 2000 rpm for 10 minutes, 10 μL from each well of the acetonitrile extraction plates were added to 90 μL of sterile, distilled H2O in 384-well, polypropylene, V-bottom plates for analysis of kynurenine and the internal standard on the RapidFire 300 (Agilent Technologies, Santa Clara, Calif.) and 4000 QTRAP MS (SCIEX, Framingham, Mass.). MS data were integrated using Agilent Technologies' RapidFire Integrator software, and data were normalized for analysis as a ratio of kynurenine to the internal standard. […]

[2] = system: human epithelial HeLa cells; assay: HeLa cytotoxicity assay (CellTiter-Glo); conditions: pCC50
Protocol: as §1, §2, §3, §4

[3] = biological target: T1, indoleamine 2, 3-dioxygenase (IDO1); assay: IDO1 PBMC RapidFire MS assay (kynurenine detection by mass spectrometry); parameters: to induce the expression of indoleamine 2, 3-dioxygenase (IDO1); host or cells: human PBMC stimulated with IFN-gamma and LPS; conditions: human PBMC stimulated with IFN-γ and LPS, 2 days, pIC50, read-out: PBMC PXC50 (converted)
Procedure, shortened: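 Kynurenine output, read by RapidFire mass spectrometry as ratio to an internal standard, was measured after 2-day compound exposure (11-point, 3-fold dilutions) of human PBMCs induced with 100 ng/ml IFN-γ and 50 ng/ml LPS. Cell viability tracked alongside via ATP luminescence; XC50 from curve fitting.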

[4] = system: human peripheral blood mononuclear cells (PBMC); assay: PBMC cytotoxicity assay (CellTiter-Glo); conditions: 2 days, pCC50
Procedure, shortened: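 % cytotoxicity was taken from CellTiter-Glo luminescence, using wells without cells and stimulated DMSO wells as references, and fitted by four-parameter curve to give XC50. Cells were human PBMC at 50,000 per well, activated with 100 ng/ml IFN-γ plus 50 ng/ml LPS. Incubation with 11-point, 3-fold dilution series ran for 2 days at 37 °C.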

T1 sequence (P14902 whole entry): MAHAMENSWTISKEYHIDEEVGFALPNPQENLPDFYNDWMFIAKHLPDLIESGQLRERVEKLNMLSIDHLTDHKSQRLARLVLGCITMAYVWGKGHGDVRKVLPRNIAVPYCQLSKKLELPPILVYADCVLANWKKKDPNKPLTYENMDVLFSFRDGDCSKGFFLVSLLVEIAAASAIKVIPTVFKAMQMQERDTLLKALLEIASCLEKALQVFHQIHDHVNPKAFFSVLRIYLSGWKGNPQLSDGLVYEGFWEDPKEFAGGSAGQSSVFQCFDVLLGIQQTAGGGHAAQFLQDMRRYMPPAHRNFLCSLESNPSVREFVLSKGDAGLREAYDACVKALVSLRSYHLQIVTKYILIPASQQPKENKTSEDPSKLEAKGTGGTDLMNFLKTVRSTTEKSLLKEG

Row | SMILES | IC50 [1] [nM] | HELA_IDO1_TOX_PXC50 [2] | IC50 [3] [nM] | PBMC TOX PXC50 [4]
1 | CC(C)CN(c1ccc([C@H](C)CC(=O)O)cc1NC(C)CCO)C1CCCCC1 (stereo partly drawn) [example 185, (3R)-3-{4-[cyclohexyl(2-methylpropyl)amino]-3-[(4-hydroxybutan-2-yl)amino]phenyl}butanoic acid] | 1580 | <5 |  | 
2 | CC(C)CN(c1ccc(C(C)CC(=O)O)cc1NC1=N[C@H](c2ccccc2)CS1)C1CCCCC1 (stereo partly drawn) [example 148, 3-{4-[cyclohexyl(2-methypropyl)amino]-3-{[(4R)-4-phenyl-4,5-dihydro-1,3-thiazol-2-yl]amino}phenyl}butanoic acid] | 631 | <5 |  | 
3 | CC(C)CN(c1ccc([C@H](C)CC(=O)O)cc1NC(C)C)C1CCCCC1 [example 180, (3R)-3-{4-[cyclohexyl(2-methylpropyl)amino]-3-[(propan-2-yl)amino]phenyl}butanoic acid] | 3980 | <5 |  | 
4 | CC(C)CN(CC(C)C)c1ccc(C(C)CC(=O)O)cc1Nc1nc2c(s1)CCCC2 (centres unmarked) [example 131, 3-{4-[bis(2-methylpropyl)amino]-3-[(4,5,6,7-tetrahydro-1,3-benzothiazol-2-yl)amino]phenyl}butanoic acid] | 631 | 4.7 |  | 
5 | CC(C)CN(CC(C)C)c1ccc(-c2ccccc2C(=O)O)cc1Nc1nc2ccccc2o1 [example 293, 3′-[(1,3-benzoxazol-2-yl)amino]-4′-[bis(2-methylpropyl)amino]-[1,1′-biphenyl]-2-carboxylic acid] | 631 | <5 |  | 
6 | CC(C)CN(c1ccc(-c2cnn(C)c2C(=O)O)cc1Nc1nc2ccccc2o1)C1CCCCC1 [example 178, 4-{3-[(1,3-benzoxazol-2-yl)amino]-4-[cyclohexyl(2-methylpropyl)amino]phenyl}-1-methyl-1H-pyrazole-5-carboxylic acid] | 3160 | <5 |  | 
7 | COCc1nnc(Nc2cc([C@H](C)CC(=O)O)ccc2N(CC(C)C)C2CCOCC2)s1 [example 216, (3R)-3-(3-{[5-(methoxymethyl)-1,3,4-thiadiazol-2-yl]amino}-4-[(2-methylpropyl)(oxan-4-yl)amino]phenyl)butanoic acid] | 50.1 |  | 39.8 | <5
8 | CC(C)CN(c1ccc(/C=C/C(=O)O)cc1Nc1nc2ccccc2o1)C1CCCCC1 [example 137, (2E)-3-{3-[(1,3-benzoxazol-2-yl)amino]-4-[cyclohexyl(2-methylpropyl)amino]phenyl}prop-2-enoic acid] |  | <5 |  | 
9 | CC(C)CN(c1ccc(C(C)CC(=O)O)cc1NCc1c[nH]cn1)C1CCCCC1 (centres unmarked) [example 159, 3-{4-[cyclohexyl(2-methylpropyl)amino]-3-{[(1H-imidazol-4-yl)methyl]amino}phenyl} butanoic acid] |  | <5 | 5010 | <5
10 | CC(C)CN(CC(C)C)c1ccc([C@@H]2C[C@@H]2C(=O)O)cc1Nc1nc(C(F)(F)F)ns1 (single isomer, unassigned) [example 209] | 20 |  | 50.1 | <5
11 | CC(C)CN(CC(C)C)c1ccc(C(C)CC(=O)O)cc1Nc1nc(N2CCC2)ns1 (centres unmarked) [example 120, 3-(3-{[3-(azetidin-1-yl) 1,2,4-thiadiazol-5-yl]amino}-4-[bis(2-methylpropyl)amino]phenyl)butanoic acid] |  | <4.3 |  | 4.7
12 | CC(C)CN(CC(C)C)c1ccc(C(C)CC(=O)O)cc1Nc1nnc(-c2ccccc2)o1.O=C(O)C(F)(F)F (centres unmarked) [example 123, 3-{4-[bis(2-methylpropyl)amino]-3-[(5-phenyl-1,3,4-oxadiazol-2-yl)amino]phenyl}butanoic acid] |  | <4.3 |  | 
13 | CC(C)CN(c1ccc([C@H](C)CC(=O)O)cc1Nc1n[nH]c(Cl)n1)C1CCOCC1 [Example 34, (R)-3-(3-((5-Chloro-1H-1,2,4-triazol-3-yl)amino)-4-(isobutyl(tetrahydro-2H-pyran-4-yl)amino)phenyl)butanoic Acid] |  |  | 6.31 | <5
14 | CC(C)CN(CC(C)C)c1ccc([C@H](C)CC(=O)O)cc1Nc1ccc(=O)n(C)c1 [example 218, (3R)-3-{4-[bis(2-methylpropyl)amino]-3-[(1-methyl-6-oxo-1,6-dihydropyridin-3-yl)amino]phenyl}butanoic acid] |  |  | 2000 | <5
15 | Cc1nc(Nc2cc([C@H](C)CC(=O)O)ccc2N(CC(C)C)C2CCOCC2)ccc1Cl [example 260, (3R)-3-{3-[(5-chloro-6-methylpyridin-2-yl)amino]-4-[(2-methylpropyl)(oxan-4-yl)amino]phenyl}butanoic acid] |  |  | 39.8 | <5
16 | CC(C)CN(c1ccc([C@H](C)CC(=O)O)cc1Nc1ncc(C(F)(F)F)cn1)C1CCOCC1 [example 241, (3R)-3-{4-[(2-methylpropyl)(oxan-4-yl)amino]-3-{[5-(trifluoromethyl)pyrimi-din-2-yl]amino}phenyl}butanoic acid] |  |  | 79.4 | <5
17 | CC(C)CN(c1ccc([C@H](C)CC(=O)O)cc1Nc1n[nH]c(C(F)(F)F)n1)[C@H]1CC[C@H](O)CC1 (racemic) [example 219, (3RS)-3-{4-[(2-methylpropyl)[(1rs&,4rs&)-4-hydroxycyclohexyl]amino]-3-{[5-(trifluoromethyl)-1H-1,2,4-triazol-3-yl]amino}phenyl}butanoic acid] |  |  | 100 | <5
18 | CO[C@H]1CC[C@@H](N(CC(C)C)c2ccc([C@H](C)CC(=O)O)cc2Nc2nc(C(F)(F)F)ns2)CC1 [Example 43, (R)-3-(4-(isobutyl((1s,4S)-4-methoxycyclohexyl)amino)-3-((3-(trifluoromethyl)-1,2,4-thiadiazol-5-yl)amino)phenyl)butanoic Acid] |  |  | 0.631 | <5
19 | CC(C)CN(c1ccc(-c2ccccc2C(=O)O)cc1Nc1nc(C#N)ns1)C1CCCCC1 [Example 89, 3′-((3-cyano-1,2,4-thiadiazol-5-yl)amino)-4′-(cyclohexyl(isobutyl)amino)-[1,1′-biphenyl]-2-carboxylic Acid] |  |  | 3.98 | <5
20 | CC(C)CN(c1ccc([C@H](C)CC(=O)O)cc1Nc1ccc(Cl)c(C#N)n1)C1CCOCC1 [Example 30, (R)-3-(3-((5-chloro-6-cyanopyridin-2-yl)amino)-4-(isobutyl(tetrahydro-2H-pyran-4-yl)amino)phenyl)butanoic Acid] |  |  | 7.94 | <5
